Measurements from PMC11354698, “Functional Characterization of an Odorant Receptor Expressed in Newly Hatched Larvae of Fall Armyworm Spodoptera frugiperda” (Insects, 2024).

target: T1, SfruOR40/Orco (SfruOR40 co-expressed with SfruOrco) (Spodoptera frugiperda, UniProt A0A9R0D2T2); test: two-electrode voltage clamp, Xenopus oocytes; format: cell-based; conditions: agonist, 10^-4 M odorant, -80 mV, Ringer's buffer pH 7.6, 0.1% DMSO, n = 7
T1 construct: gene LOC118267896; full-length ORF of SfruOR40 (395 residues); with Odorant receptor coreceptor
T1 sequence (A0A9R0D2T2 1-395): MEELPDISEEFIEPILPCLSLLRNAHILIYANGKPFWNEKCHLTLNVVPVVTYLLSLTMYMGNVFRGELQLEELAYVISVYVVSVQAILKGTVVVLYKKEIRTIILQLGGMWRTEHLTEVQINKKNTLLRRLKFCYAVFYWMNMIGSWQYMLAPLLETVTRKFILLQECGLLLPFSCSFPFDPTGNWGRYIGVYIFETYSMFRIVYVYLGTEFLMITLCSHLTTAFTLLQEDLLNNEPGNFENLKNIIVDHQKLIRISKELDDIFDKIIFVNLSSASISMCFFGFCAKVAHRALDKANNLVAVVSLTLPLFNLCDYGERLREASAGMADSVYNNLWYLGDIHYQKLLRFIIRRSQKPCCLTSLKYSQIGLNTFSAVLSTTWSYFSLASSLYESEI
T1 sequence (A0A9F1UC78 1-473 partner): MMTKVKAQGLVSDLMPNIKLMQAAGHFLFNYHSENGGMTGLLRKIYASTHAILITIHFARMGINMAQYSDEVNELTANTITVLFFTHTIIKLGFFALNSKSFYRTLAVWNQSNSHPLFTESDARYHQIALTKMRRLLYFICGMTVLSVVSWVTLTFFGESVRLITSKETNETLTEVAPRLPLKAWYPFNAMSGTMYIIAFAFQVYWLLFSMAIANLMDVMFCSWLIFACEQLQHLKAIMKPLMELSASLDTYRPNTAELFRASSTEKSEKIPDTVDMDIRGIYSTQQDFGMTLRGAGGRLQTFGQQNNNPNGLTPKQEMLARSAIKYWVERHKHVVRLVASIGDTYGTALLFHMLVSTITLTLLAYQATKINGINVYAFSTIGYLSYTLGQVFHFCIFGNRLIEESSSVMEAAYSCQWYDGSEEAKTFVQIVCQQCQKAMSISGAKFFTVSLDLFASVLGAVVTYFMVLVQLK

SMILES | mean current amplitude at 10^-4 M [nA]
C=C1CC[C@H]2O[C@]2(C)CC[C@@H]2[C@@H]1CC2(C)C [(−)-trans-Caryophyllene oxide] | 90
C=C1CC/C=C(\C)CC[C@@H]2[C@@H]1CC2(C)C [(−)-trans-Caryophyllene] | 111
C/C1=C\CC/C(C)=C/CC(C)(C)/C=C/C1 [α-Humulene] | 206
